US20070249560A1, “Hydrolysis resistant organomodified silyated surfactants” (priority 2006, published 2007)

What was measured:
[1] = Spreading of 10 μL droplet on polystyrene Petri dishes; assay type: physicochemical; details: 30 seconds
Method: Spreading was determined by applying a 10 μL droplet, of surfactant solution to polystyrene Petri dishes (Fisher Scientific) and measuring the spread diameter (mm) after 30 seconds, at a relative humidity between 50 and 70% (at 22 to 25° C.). The solution was applied with an automatic pipette to provide droplets of reproducible volume. Deionized water that was further purified with a Millipore filtration system was used to prepare the surfactant solutions.

[2] = Surface tension, Kruss surface tensiometer; assay type: physicochemical; details: 0.1 wt % in 0.005M NaCl water
Method: Surface tension was measured using a Kruss surface tensiometer, with a sand blasted platinum blade as the sensor. Solutions of the various components were prepared at 0.1 wt % in 0.005M NaCl water (deionized), as an equilibrium aid.

| Compound | Spread Diameter (mm) ([1]; 0.05% weight surfactant) | Spread Diameter (mm) ([1]; 0.1% weight surfactant) | Spread Diameter (mm) ([1]; 0.3% weight surfactant) | Spread Diameter (mm) ([1]; 0.5% weight surfactant) | Surface Tension [2] [mN/m] |
| --- | --- | --- | --- | --- | --- |
| C[Si](C)(C)C[Si](C)(C)CCCOCCOCCOCCOCCO [Product 6] | 40 | 45 | 53 | 47 | 22.5 |
| C[Si](C)(C)CC[Si](C)(C)CCCOCCOCCOCCOCCO [Product 7] | 30 | 42 | 48 | 49 | 22.7 |
| C[Si](C)(C)C[Si](C)(C)CCCOCCOCCOCCOCCOCCOCCOCCOCCOCCOCCOCCO [Product 8] | – | 7 | – | 7 | 27.7 |
| C[Si](C)(C)CC[Si](C)(C)CCCOCCOCCOCCOCCOCCOCCOCCOCCOCCOCCOCCO [Product 9] | – | 7 | – | 7 | 26.7 |
| Octylphenolethoxylate, containing 10 polyoxyethylene units [OPE, reference compound] | – | 9 | – | 10 | 31.8 |
